One series deals with Neutrophil collagenase (Homo sapiens, UniProt P22894). Put plainly: Inhibition of recombinant human […]-activated MMP8 using Cy3-PLGLK(Cy5Q)AR-NH2 as substrate measured after 40 mins by spectrofluorimetric method.
Series [1] is described as follows: Clearance in rat liver microsomes. Format: ADME. The settings on record: read-out: CLH. A general note: Liver microsomes are vesicles of endoplasmic reticulum, rich in cytochrome P450 enzymes.
In a further series the target is Stromelysin-2 (Homo sapiens, UniProt P09238). Put plainly: Inhibition of recombinant human […]-activated MMP10 using Cy3-PLGLK(Cy5Q)AR-NH2 as substrate measured after 40 mins by spectrofluorimetric method.
Series [2] has as its target Matrix metalloproteinase-14 (Homo sapiens, UniProt P50281). Description: Inhibition of recombinant human GST-tagged MMP14 using Cy3-PLGLK(Cy5Q)AR-NH2 as substrate measured after 40 mins by spectrofluorimetric method.
The nature of series [3]: Oral bioavailability in rat at 1 mg/kg. The format is ADME, organism-based. The settings on record: in vivo.
The target in another series is T1, Interstitial collagenase (Homo sapiens, UniProt P03956).
T1 sequence (P03956 whole entry): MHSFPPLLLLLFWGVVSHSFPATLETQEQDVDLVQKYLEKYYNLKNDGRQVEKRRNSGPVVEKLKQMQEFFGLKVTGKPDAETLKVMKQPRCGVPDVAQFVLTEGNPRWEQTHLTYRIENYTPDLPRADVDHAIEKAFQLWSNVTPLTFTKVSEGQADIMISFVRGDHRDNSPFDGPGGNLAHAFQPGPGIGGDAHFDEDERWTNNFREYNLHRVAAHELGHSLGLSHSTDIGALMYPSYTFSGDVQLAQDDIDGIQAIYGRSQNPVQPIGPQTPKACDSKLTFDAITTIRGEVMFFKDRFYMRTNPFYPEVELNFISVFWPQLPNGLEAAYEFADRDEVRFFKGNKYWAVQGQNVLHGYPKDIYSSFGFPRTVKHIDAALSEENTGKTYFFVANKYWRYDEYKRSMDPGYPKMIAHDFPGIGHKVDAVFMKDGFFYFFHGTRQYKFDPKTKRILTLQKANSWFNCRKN
Description: Inhibition of recombinant human […]-activated MMP1 using Cy3-PLGLK(Cy5Q)AR-NH2 as substrate measured after 40 mins by spectrofluorimetric method.

The next series deals with Stromelysin-1 (Homo sapiens, UniProt P08254). Description: Inhibition of recombinant human […]-activated MMP3 using Cy3-PLGLK(Cy5Q)AR-NH2 as substrate measured after 40 mins by spectrofluorimetric method.
Series [4] can be described thus: Clearance in rat at 0.1 mg/kg, iv or 1 mg/kg, po. The settings on record: in vivo. The format is ADME, organism-based.
The target of series [5] is Disintegrin and metalloproteinase domain-containing protein 17 (Homo sapiens, UniProt P78536). Put plainly: Inhibition of recombinant human TACE using Cy3-PLAQAV(Cy5Q-L-2,3-diaminopropionic acid)-RSSSR-NH2 as substrate measured after 40 mins by spectrofluorimetric method.
The target in series [6] is 72 kDa type IV collagenase (Homo sapiens, UniProt P08253). Put plainly: Inhibition of recombinant human […]-activated MMP2 using Cy3-PLGLK(Cy5Q)AR-NH2 as substrate measured after 40 mins by spectrofluorimetric method.
The nature of series [7]: Solubility of the compound at pH 6.8. Format: physicochemical. The settings on record: buffer.
The next series has as its target CYP3A4 (Homo sapiens, UniProt P08684). Description: Inhibition of CYP3A4 (unknown origin) at 10 uM. Format: ADME.
For series [8], the target named is Matrix metalloproteinase-9 (Homo sapiens, UniProt P14780). Description: Inhibition of recombinant human […]-activated MMP9 using Cy3-PLGLK(Cy5Q)AR-NH2 as substrate measured after 40 mins by spectrofluorimetric method.
The target of the next series is T2, Matrilysin (Homo sapiens, UniProt P09237).
T2 sequence (P09237 whole entry): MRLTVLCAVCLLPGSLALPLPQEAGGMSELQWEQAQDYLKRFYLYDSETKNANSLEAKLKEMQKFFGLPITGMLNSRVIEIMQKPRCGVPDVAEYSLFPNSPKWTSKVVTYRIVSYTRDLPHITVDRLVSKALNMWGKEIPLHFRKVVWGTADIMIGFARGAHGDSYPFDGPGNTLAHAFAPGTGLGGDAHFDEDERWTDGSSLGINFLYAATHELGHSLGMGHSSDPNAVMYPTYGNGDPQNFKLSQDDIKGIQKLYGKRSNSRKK
Put plainly: Inhibition of recombinant human […]-activated MMP7 using Cy3-PLGLK(Cy5Q)AR-NH2 as substrate measured after 40 mins by spectrofluorimetric method.

A short description of series [9]: Volume of distribution in rat at 0.1 mg/kg, iv or 1 mg/kg, po. Format: ADME, organism-based. The settings on record: in vivo.
Series [10] is described as follows: Permeability of the compound at pH 7.4 by PAMPA assay. The settings on record: read-out: permeability. Format: ADME. For orientation: In PAMPA a lipid-coated filter parts donor from acceptor wells.
In series [11] the target is Macrophage metalloelastase (Homo sapiens, UniProt P39900). Description: Inhibition of recombinant human […]-activated MMP12 using Cy3-PLGLK(Cy5Q)AR-NH2 as substrate measured after 40 mins by spectrofluorimetric method.
A short description of series [12]: Clearance in human liver microsomes. Format: ADME. The settings on record: read-out: CLH.
For a further series, the target named is Collagenase 3 (Homo sapiens, UniProt P45452).

Converted amounts (≈) assume the structure as drawn. Bounds are passed on as bounds.

Neutrophil collagenase, sequence (P22894 whole entry): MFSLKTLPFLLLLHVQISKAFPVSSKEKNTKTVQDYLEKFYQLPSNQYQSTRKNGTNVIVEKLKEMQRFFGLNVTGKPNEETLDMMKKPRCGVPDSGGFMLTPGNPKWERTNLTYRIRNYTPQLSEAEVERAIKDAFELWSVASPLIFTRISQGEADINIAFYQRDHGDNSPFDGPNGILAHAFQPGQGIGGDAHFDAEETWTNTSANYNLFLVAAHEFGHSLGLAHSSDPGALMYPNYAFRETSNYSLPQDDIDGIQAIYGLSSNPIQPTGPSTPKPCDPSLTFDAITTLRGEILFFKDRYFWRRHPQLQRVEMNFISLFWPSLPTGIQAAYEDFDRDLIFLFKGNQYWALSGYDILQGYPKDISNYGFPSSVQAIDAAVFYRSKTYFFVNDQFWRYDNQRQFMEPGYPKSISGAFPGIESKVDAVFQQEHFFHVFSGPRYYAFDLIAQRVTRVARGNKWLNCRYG
Stromelysin-1, sequence (P08254 whole entry): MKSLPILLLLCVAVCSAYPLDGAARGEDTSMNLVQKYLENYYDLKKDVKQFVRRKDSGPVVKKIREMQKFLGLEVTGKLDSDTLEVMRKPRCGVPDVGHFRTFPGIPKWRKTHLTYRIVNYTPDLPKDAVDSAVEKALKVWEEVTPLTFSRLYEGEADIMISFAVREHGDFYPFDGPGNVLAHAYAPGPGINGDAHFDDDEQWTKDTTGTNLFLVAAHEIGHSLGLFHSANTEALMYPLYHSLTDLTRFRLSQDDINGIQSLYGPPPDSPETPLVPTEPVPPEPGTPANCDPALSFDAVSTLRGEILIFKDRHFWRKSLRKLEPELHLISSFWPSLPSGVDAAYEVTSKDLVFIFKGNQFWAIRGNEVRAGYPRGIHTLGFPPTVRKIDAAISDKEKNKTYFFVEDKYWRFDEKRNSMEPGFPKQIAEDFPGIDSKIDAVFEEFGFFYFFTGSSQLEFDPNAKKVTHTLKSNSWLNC
Disintegrin and metalloproteinase domain-containing protein 17, sequence (P78536 whole entry, the tested form may be a part): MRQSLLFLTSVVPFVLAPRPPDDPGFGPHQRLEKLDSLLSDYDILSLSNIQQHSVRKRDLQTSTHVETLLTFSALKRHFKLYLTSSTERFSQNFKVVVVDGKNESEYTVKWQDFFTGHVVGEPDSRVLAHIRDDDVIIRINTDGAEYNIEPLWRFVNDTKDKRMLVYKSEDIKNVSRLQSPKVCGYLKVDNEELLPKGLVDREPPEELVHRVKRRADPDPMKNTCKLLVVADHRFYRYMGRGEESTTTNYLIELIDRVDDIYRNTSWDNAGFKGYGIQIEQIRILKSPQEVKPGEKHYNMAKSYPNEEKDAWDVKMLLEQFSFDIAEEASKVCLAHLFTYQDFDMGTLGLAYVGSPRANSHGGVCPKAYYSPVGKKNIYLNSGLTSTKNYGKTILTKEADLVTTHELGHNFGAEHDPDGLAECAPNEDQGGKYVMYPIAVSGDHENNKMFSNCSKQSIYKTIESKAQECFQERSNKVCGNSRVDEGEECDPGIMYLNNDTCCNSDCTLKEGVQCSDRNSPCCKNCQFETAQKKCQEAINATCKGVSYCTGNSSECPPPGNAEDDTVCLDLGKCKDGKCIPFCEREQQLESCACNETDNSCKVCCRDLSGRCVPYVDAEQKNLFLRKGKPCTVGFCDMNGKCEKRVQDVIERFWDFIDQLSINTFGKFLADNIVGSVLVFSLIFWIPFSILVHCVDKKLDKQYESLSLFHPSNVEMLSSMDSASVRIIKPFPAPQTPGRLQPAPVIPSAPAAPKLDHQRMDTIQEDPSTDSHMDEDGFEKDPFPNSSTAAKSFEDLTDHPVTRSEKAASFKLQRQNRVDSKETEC
72 kDa type IV collagenase, sequence (P08253 whole entry): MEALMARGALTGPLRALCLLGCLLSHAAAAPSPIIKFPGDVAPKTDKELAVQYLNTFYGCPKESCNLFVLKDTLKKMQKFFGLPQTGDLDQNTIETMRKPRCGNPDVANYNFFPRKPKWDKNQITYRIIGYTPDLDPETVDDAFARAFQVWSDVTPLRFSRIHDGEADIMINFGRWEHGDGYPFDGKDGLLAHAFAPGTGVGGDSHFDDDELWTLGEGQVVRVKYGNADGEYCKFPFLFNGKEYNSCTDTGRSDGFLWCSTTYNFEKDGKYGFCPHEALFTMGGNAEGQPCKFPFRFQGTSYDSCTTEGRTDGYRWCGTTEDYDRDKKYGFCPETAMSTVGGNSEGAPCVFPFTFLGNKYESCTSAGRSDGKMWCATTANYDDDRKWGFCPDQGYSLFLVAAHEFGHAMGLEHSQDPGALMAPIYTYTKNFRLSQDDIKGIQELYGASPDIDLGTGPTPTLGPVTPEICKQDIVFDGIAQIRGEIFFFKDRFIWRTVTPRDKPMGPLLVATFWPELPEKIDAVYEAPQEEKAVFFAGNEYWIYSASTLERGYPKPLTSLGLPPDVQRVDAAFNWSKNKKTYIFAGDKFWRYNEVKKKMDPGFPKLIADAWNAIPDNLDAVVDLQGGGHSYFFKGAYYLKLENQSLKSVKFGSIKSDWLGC
Matrix metalloproteinase-9, sequence (P14780 whole entry): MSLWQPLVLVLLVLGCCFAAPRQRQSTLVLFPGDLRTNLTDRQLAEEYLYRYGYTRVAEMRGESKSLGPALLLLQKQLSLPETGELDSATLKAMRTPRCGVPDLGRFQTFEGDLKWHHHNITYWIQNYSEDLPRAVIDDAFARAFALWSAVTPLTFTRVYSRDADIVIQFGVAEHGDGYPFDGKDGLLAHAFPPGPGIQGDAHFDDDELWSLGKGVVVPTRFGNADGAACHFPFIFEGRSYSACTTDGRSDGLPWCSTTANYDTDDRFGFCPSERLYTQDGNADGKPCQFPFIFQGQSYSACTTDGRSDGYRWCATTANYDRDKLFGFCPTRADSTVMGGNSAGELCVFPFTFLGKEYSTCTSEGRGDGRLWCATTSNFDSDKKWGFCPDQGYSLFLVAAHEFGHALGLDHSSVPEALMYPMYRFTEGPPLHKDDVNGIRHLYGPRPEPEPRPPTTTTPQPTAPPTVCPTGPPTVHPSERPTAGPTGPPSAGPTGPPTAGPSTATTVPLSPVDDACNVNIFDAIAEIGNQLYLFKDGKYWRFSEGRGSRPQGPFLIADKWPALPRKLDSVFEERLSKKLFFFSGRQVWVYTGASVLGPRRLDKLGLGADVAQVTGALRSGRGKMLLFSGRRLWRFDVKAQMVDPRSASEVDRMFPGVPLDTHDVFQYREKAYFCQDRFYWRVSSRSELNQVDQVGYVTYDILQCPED
CYP3A4, sequence (P08684 whole entry): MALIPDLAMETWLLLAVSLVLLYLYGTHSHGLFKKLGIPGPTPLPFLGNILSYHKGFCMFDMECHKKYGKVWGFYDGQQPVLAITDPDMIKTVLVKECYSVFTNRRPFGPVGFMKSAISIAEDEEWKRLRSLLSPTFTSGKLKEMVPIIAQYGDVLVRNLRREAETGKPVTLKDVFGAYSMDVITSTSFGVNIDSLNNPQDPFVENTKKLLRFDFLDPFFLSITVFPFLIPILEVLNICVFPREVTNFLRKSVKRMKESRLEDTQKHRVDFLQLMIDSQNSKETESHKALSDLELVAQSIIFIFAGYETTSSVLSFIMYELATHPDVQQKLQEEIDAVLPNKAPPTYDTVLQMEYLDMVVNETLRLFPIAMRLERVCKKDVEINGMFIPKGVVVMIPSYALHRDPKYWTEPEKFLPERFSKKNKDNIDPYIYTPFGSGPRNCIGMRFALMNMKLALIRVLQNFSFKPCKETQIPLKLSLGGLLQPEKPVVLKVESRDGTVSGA
Stromelysin-2, sequence (P09238 whole entry): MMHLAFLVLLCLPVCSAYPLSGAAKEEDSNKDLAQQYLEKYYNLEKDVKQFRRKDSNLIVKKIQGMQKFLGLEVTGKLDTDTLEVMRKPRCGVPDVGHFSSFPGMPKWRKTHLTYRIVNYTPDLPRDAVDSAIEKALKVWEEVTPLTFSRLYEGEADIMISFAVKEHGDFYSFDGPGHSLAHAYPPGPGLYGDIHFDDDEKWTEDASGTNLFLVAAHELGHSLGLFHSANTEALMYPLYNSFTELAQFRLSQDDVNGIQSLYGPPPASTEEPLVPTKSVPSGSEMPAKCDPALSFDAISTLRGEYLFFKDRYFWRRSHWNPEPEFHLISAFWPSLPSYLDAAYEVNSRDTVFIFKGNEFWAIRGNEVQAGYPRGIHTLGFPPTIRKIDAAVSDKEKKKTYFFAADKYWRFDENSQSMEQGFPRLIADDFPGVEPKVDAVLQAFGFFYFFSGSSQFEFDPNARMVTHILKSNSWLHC
Macrophage metalloelastase, sequence (P39900 whole entry): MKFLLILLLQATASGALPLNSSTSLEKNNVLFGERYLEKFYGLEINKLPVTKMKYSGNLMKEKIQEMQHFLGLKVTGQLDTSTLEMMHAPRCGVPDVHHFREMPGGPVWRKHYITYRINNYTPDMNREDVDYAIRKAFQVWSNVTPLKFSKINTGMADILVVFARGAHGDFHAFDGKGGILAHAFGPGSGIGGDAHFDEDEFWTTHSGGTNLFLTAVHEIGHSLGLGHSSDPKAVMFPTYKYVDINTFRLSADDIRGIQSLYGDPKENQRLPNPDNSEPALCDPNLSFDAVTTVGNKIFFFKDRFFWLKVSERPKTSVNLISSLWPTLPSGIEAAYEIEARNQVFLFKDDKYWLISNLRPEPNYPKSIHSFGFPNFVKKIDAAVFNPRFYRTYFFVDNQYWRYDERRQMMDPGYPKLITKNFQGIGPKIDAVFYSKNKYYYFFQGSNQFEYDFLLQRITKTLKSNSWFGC
Description for Collagenase 3: Inhibition of recombinant human AMPA-activated MMP13 using Cy3-PLGLK(Cy5Q)AR-NH2 as substrate measured after 40 mins by spectrofluorimetric method

For `O=C(NCc1cccc(-c2ccc(CS(=O)(=O)Cc3n[nH]c(=O)[nH]3)cc2)c1)c1nc2ccccc2c(=O)[nH]1`, the concentration for half-maximal inhibition (IC50) is 12 nM at Neutrophil collagenase; 150 nM on Stromelysin-2; greater than 10000 nM in series [2]; greater than 10000 nM at Interstitial collagenase; 2400 nM at Stromelysin-1; greater than 10000 nM in series [5]. In addition, the concentration for half-maximal inhibition (IC50) in series [6] was 23 nM; in series [8], greater than 10000 nM; at Matrilysin, greater than 10000 nM; in series [11], 9500 nM; on Collagenase 3 it was 0.071 nM. Moreover, the figures for the microsomal CLint in [1] and in series [12] were 13 µL/min/mg and 7 µL/min/mg, respectively. This compound yielded a bioavailability in series [3] of 1.3%. The clearance in series [4] was 5.38 mL/min/kg. In [7], this compound yielded a solubility of 0.48 µg/mL (≈ 0.905 µM). The inhibition at 10 µM on CYP3A4 is 29%. Moreover, the Vd in [9] turned out to be 0.32 L/kg. Besides, in [10], the Papp came out at 0.7 ×10⁻⁶ cm/s.

The IC50 is the point on the concentration scale where inhibition reaches its midpoint. The bioavailability is the share of a dose that reaches the circulation, judged against a reference dose that is usually intravenous. A lower bioavailability goes with little systemic uptake. As a reminder, the solubility is the dissolved amount per volume that the medium holds. As a reminder, the inhibition is the percentage by which the read-out fell short of the control.

For the origin of these results see ChEMBL document CHEMBL3867480 (Bioorg Med Chem, 2016).
